As usually defined, the IC50 is the concentration that inhibits the measured activity by half.

Active and inactive are the calls of the source. The rule behind the calls is not given here.

Data set [1] can be described thus: Inhibition of Staphylococcus aureus USA300 LAC quorum sensing system Agr assessed as reduction in AIP production measured after 5 hrs by UPLC-MS analysis. Further details: species or system Staphylococcus aureus subsp. aureus USA300.
For data set [2], the target named is T1, Accessory gene regulator protein A (Staphylococcus aureus) (UniProt P0A0I7).
T1 sequence (whole entry): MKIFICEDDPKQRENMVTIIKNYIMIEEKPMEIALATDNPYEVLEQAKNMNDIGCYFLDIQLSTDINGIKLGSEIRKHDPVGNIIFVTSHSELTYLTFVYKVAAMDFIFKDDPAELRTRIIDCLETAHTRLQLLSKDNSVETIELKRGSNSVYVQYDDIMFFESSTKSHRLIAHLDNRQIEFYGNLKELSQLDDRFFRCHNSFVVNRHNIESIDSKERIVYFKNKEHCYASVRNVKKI
The experiment in a line: Inhibition of Staphylococcus aureus USA300 LAC quorum sensing system AgrA assessed as reduction in RNA3 transcription at 9 to 16 uM after 5 hrs by RNA protect cell reagent based qRT-PCR analysis. The note with it: Staphylococcus aureus subsp. aureus USA300.

Data set [3] addresses T1, Accessory gene regulator protein A (Staphylococcus aureus). The data set is described as follows: Inhibition of Staphylococcus aureus USA300 LAC quorum sensing system AgrA assessed as reduction in psma transcription at 2.9 to 16 uM after 5 hrs by RNA protect cell reagent based qRT-PCR analysis. Particulars: Staphylococcus aureus subsp. aureus USA300. In general terms: In qPCR the cycle at which signal appears reflects the starting amount.

Data set [4] deals with Staphylococcus aureus subsp. aureus USA300. The experiment in a line: Inhibition of Staphylococcus aureus USA300 LAC quorum sensing system Agr assessed as reduction in hla transcription at 2.9 to 16 uM after 5 hrs by RNA protect cell reagent based qRT-PCR analysis.
The subject of data set [5] is Staphylococcus aureus. The data set is described as follows: Effect on growth of Staphylococcus aureus USA300 LAC measured at 1 hr interval for 5 hrs.

In the case of `O=C1c2cc(O)cc(O)c2C(=O)c2c(O)cc(CO)cc21`, the IC50 in data set [1] was in the range of 6.3 to 12.5 µM. On the same count and under the same terms, then `CCCCC/C=C/C1=C(CO)[C@@H](O)[C@H]2O[C@@]2(C/C=C(\C)C(=O)O)C1=O`, with 1.3 µM.

As for `CC(C)=C[C@H]1c2c(O)cc(C)cc2Oc2cc(C)c(C(=O)O)c(O)c21`, the IC50 in data set [1] is 0.3 µM. Besides, the inhibition result in data set [2], in data set [3] and in data set [4] was “Active” each time. In data set [5], the Activity entry was “Non-Toxic”.

For `CC(C)=CCc1c(O)cc(C)cc1Oc1cc(C)c(C(=O)O)c(O)c1`, in data set [1], the concentration for half-maximal inhibition (IC50) is 4.6 µM. Still for that read-out and setting: as for `CC(C)=CC1c2c(O)cc(C)cc2Oc2cc(C)cc(O)c21`, the figure is 6.3 to 12.5 µM.
